In one experiment the target is T1, PP2CA (Arabidopsis thaliana, UniProt P49598).
T1 construct: GST fusion, E. coli Rosetta, glutathione-Sepharose
T1 sequence (P49598 1-399): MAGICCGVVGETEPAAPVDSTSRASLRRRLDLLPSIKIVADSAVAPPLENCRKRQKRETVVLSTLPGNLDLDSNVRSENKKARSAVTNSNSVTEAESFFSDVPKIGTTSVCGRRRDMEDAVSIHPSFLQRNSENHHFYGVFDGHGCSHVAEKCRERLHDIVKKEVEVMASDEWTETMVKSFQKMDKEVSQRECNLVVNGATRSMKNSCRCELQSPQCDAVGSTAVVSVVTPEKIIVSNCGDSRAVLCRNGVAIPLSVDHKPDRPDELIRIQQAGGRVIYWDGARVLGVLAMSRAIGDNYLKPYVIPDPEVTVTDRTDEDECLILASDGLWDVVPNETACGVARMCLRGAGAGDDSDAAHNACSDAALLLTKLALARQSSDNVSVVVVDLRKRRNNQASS
Put plainly: ProFluor Ser/Thr PPase fluorescence assay. The class given is biochemical.

In another experiment the target is T2, ERD10 (Arabidopsis thaliana, UniProt P42759).
T2 construct: GST fusion, E. coli Rosetta, glutathione-Sepharose
T2 sequence (P42759 1-260): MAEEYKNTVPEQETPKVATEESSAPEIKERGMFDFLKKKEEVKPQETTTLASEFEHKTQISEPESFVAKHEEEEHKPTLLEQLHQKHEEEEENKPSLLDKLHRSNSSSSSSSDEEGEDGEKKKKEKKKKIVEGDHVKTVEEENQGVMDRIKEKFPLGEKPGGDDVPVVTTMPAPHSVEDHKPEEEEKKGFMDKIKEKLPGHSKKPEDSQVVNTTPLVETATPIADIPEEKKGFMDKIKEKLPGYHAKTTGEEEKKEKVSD
As to the kind of experiment: phospholipid blot (lipid overlay). The class given is binding. The settings on record: TBST pH 7.5, 4 °C.

The next experiment deals with T3, ABI1 (Arabidopsis thaliana, UniProt P49597).
T3 construct: GST fusion, E. coli Rosetta, glutathione-Sepharose
T3 sequence (P49597 1-434): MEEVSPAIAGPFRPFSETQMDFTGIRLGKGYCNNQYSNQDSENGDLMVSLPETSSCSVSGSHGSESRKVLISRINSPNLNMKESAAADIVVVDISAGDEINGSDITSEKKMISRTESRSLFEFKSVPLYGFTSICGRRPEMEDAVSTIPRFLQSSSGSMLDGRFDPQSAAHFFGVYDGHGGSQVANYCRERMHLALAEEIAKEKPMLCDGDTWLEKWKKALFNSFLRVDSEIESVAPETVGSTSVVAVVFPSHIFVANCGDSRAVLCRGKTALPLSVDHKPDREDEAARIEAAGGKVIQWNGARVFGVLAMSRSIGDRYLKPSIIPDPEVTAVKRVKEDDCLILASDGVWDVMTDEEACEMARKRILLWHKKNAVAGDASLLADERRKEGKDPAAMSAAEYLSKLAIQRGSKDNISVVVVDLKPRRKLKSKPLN
As to the kind of experiment: ProFluor Ser/Thr PPase fluorescence assay. It counts as biochemical.

Counter-ions that a name gives are not always drawn.

As a reminder, the inhibition is the relative decrease from the control value, in per cent.

As to `CCCCCCCC/C=C\CCCCCCCC(=O)O[C@H](COC(=O)CCCCCCCCCCCCCCC)COP(=O)(O)O` [PA 16:0/18:1, 1-palmitoyl-2-oleoyl-sn-glycero-3-phosphate, sodium salt], the inhibition at 50 µM against PP2CA and against ABI1 was 50 to 60% throughout. Also, at ERD10, the “phospholipid blot (lipid overlay)” value was “the two dehydrins bound both PA and PS”.

The values are drawn from paper PMC7404309, “Regulation of ABA-Non-Activated SNF1-Related Protein Kinase 2 Signaling Pathways by Phosphatidic Acid” (International Journal of Molecular Sciences, 2020).
